Test results from patent US20140328893A1, “NUTLIN COMPOUNDS FOR USE IN THE TREATMENT OF PULMONARY HYPERTENSION” (Institut National de la Sante et de la Recherche Medicale …, priority 2011, published 2014).

Tests used:
p53 pathway [1] = assay: Lung p53 and p21 levels in SM22-5-HTT+ mice (Western blotting, RT-qPCR); format: in vivo
Protocol: (§1) Nutlin-3 was administered at the increasing dosages of 6, 12, and 25 mg/Kg/day by intraperitoneal injection. At completion of treatment, lungs were removed and prepared for histological or Western blot analyses.
(§2) p53, p16, p21, caspase and MDM2 proteins were detected and measured in lung tissues and/or cells using Western blotting. Levels of p21, Bax, and PUMA mRNA in lung tissues and/or cells were determined using RT-qPCR. Total mRNA was extracted from lung tissues and PA-SMC using RNeasy Mini Kit (Qiagen, ZA Courtaboeuf, France). First-strand cDNA was synthesized in reversed transcribed samples, as follows: 1 μg total RNA isolated from cells or lung tissues, 200 U/μL SuperScrip II RT (Invitrogen, Life Technologies, Cergy-Pontoise, France), 100 ng Random primers and 10 mM mixed dNTP. Quantitative PCR was performed in a 7900HT Real-Time PCR system (Applied Biosystems, ZA Courtaboeuf, France), using SYBR green Mix from Invitrogen.

p53 pathway [2] = assay: Lung p53 and p21 levels in hypoxic mice (Western blotting, RT-qPCR); format: in vivo
Protocol: as §1, §2

p53 pathway [3] = assay: p53 pathway activation in cultured human PA-SMCs (Western blotting, RT-qPCR); format: cell-based; conditions: 2.5 to 10 μM
Protocol: (§3) Cultured PA-SMCs were collected from pulmonary arteries of patients undergoing lung surgery for localized lung tumours. To determine the phenotypic characteristics of cultured PA-SMCs, the cells from each culture were assessed for expression of musclespecific contractile and cytoskeletal proteins, including smooth muscle cell α-actin and desmin.
(§4) To assess the effects of nutlin on cell senescence, the percentage of beta-galactosidase (β-gap)-positive cells was measured after 48 hours incubation with nutlin-3 in presence or absence of vehicle or PDGF. The amounts of p53, p16, and p21 proteins or mRNA were determined by western blotting o by RT-qPCR, respectively.
as §2

[4] = tested on: mice exposed to chronic hypoxia; assay: Pulmonary hypertension in mice exposed to chronic hypoxia; format: in vivo
Protocol: (§5) Wild-type mice aged 15-20 weeks were randomly allocated to room air or chronic hypoxia. Transgenic animals expressing the human 5-HTT gene in smooth muscle (SM22-5-HTT+ mice) were produced as previously described. All animal care and procedures were in accordance with institutional guidelines.
as §1
Mice were exposed to chronic hypoxia (10% O2) in a ventilated chamber (Biospherix, N.Y., USA). The hypoxic environment was established by flushing the chamber with a mixture of room air and nitrogen, and the gas was recirculated. The chamber environment was monitored using an oxygen analyzer. Carbon dioxide was removed by soda lime granules, and excess humidity was prevented by cooling of the recirculation circuit. Normoxic mice were kept in the same room, with the same light-dark cycle.
Mice exposed previously to hypoxia or room air or SM22-5-HTT+ mice were anaesthetized. After incision of the abdomen, a 26-gauge needle connected to a pressure transducer was inserted into the right ventricle through the diaphragm, and right ventricular systolic pressure (RVSP) was recorded immediately. Then, the thorax was opened and the lungs and heart were removed. The right ventricle (RV) was dissected from the left ventricle plus septum (LV+S), and these dissected samples were weighed for determination of Fulton's index (RV/LV+S). The lungs were fixed by intratracheal infusion of 4% aqueous buffered formalin. A midsagittal slice of the right lung was processed for paraffin embedding. Sections 5 μm in thickness were cut and stained with hematoxylin-phloxine-saffron for examination by light microscopy. In each mouse, a total of 20 to 30 intraacinar vessels accompanying either alveolar ducts or alveoli were examined by an observer who was blinded to the treatment or genotype. Each vessel was categorized as nonmuscular (no evidence of vessel wall muscularization), partially muscular (smooth muscle cells [SMCs] identifiable in less than three-fourths of the vessel circumference), or fully muscular (SMCs in more than three-fourths of the vessel circumference). The percentage of pulmonary vessels in each muscularization category was determined by dividing the number of vessels in that category by the total number counted in the relevant group of animals. For fully muscular vessels, video images were obtained and arterial diameters were measured using computerized image-analysis software. Percent wall thickness was then calculated as the diameter of the external elastic lamina minus the diameter of the internal lamina divided by the diameter of the external elastic lamina.

cultured human PA-SMC [5] = assay: PA-SMC proliferation (MTT); format: cell-based; conditions: 2.5-10 μM, 48 hours
Protocol: as §3
To assess the effects of nutlin-3 on PASMC proliferation, cells were exposed to increasing concentration of nutlin-3a (2.5-10 μM) or vehicle in serum-free medium or in presence of PDGF-BB (50 ng/ml). After 48 hours, tetrazolium salt (MTT), (Sigma, Lyon, France) was added to each well (0.2 mg/ml). After 4 hours incubation at 37° C., the culture medium was removed and formazan crystals were solubilized by adding 500 μL of DMSO. Tetrazolium salt reduction to formazan within the cells was quantified by spectrophotometry at 520 nm.

cultured human PA-SMC [6] = assay: PA-SMC senescence (beta-galactosidase-positive cells); format: cell-based; conditions: 48 hours incubation
Protocol: as §3, §4

SM22-5-HTT+ mice = assay: Pulmonary hypertension in SM22-5-HTT+ mice; format: in vivo; conditions: 12 mg/Kg/day
Protocol: as §5, §1
Mice exposed previously to hypoxia or room air or SM22-5-HTT+ mice were anaesthetized. After incision of the abdomen, a 26-gauge needle connected to a pressure transducer was inserted into the right ventricle through the diaphragm, and right ventricular systolic pressure (RVSP) was recorded immediately. Then, the thorax was opened and the lungs and heart were removed. […] The percentage of pulmonary vessels in each muscularization category was determined by dividing the number of vessels in that category by the total number counted in the relevant group of animals. For fully muscular vessels, video images were obtained and arterial diameters were measured using computerized image-analysis software. Percent wall thickness was then calculated as the diameter of the external elastic lamina minus the diameter of the internal lamina divided by the diameter of the external elastic lamina.

[7] = tested on: p53-deficient (p53−/−) mice; assay: Chronic hypoxia-induced pulmonary hypertension in p53-deficient mice; format: in vivo
Description: Normoxic mice were kept in the same room, with the same light-dark cycle.

[8] = chronic hypoxia mice, 6 to 25 mg/Kg/day intraperitoneally
[9] = mice, associated with protective effects

SMILES	lung p21 mRNA (p53 pathway [1])	lung p21 protein (p53 pathway [1])	lung p53 protein (p53 pathway [1])	lung p21 mRNA (p53 pathway [2])	lung p21 protein (p53 pathway [2])	lung p53 protein (p53 pathway [2])	mRNA level of p53 target gene Bax (p53 pathway [3])	mRNA level of p53 target gene PUMA (p53 pathway [3])	mRNA level of p53 target gene p21 (p53 pathway [3])	p53 protein (p53 pathway [3])	distal pulmonary artery muscularization [4, 8]	pulmonary hypertension [4, 8]	right ventricular hypertrophy [4, 8]	PA-SMC proliferation [4, 9]	apoptosis [4, 9]	cell proliferation stimulated by 50 ng/ml PDGF (cultured human PA-SMC [5]; 50 ng/ml PDGF)	cell proliferation stimulated by 0.2% FCS (cultured human PA-SMC [5]; 0.2% FCS)	percentage of beta-galactosidase stained cells (senescent cells) (cultured human PA-SMC [6])	PH in SM22-5-HTT+ mice (SM22-5-HTT+ mice)	pulmonary hypertension induced by chronic hypoxia in p53-deficient mice [7]
COc1ccc(C2=NC(c3ccc(Cl)cc3)C(c3ccc(Cl)cc3)N2C(=O)N2CCNC(=O)C2)c(OC(C)C)c1 (racemic) [Nutlin-3, (±)-4-[4,5-Bis(4-chlorophenyl)-2-(2-isopropoxy-4-methoxy-phenyl)-4,5-dihydro-imidazole-1-carbonyl]-piperazin-2-one]	marked increases	marked increases	marked increases	marked increases	marked increases	marked increases	increased	increased	increased	increased	prevented	prevented	prevented	decrease	increase	dose-dependent inhibition	dose-dependent inhibition	increase	partially reversed	–
COc1ccc(C2=N[C@@H](c3ccc(Cl)cc3)[C@@H](c3ccc(Cl)cc3)N2C(=O)N2CCNC(=O)C2)c(OC(C)C)c1 [nutlin-3a]	–	–	–	–	–	–	–	–	–	–	–	–	–	–	–	–	–	–	–	remained unaffected
